In patent publication US6114310A, “Efflux pump inhibitors” (priority 1998, dated 2000):

Test system: Pseudomonas aeruginosa PAM1001
Assay: microbe, parasite or virus in culture
Assay type: cell-based
Method in brief: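 Checkerboard broth microdilution (NCCLS) with the efflux pump inhibitor and levofloxacin, each diluted along one axis of the plate, in Mueller Hinton Broth. Inoculum 5×10^5 CFU/ml from early-log culture; incubation 20 h at 35° C. Growth read at 650 nm and visually.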

[1] = Table 1, EPI Conc. μg/ml (number not given; column between 10 and 40 μg/ml)
[2] = Table 2, EPI Conc. μg/ml (number not given; column between 10 and 40 μg/ml)
[3] = Table 3, EPI Conc. μg/ml (number not given; column between 10 and 40 μg/ml)
[4] = Table 4, EPI Conc. μg/ml (number not given; column between 10 and 40 μg/ml)

| Substance | Levofloxacin MIC Against P. aeruginosa PAM1001 in Presence of Efflux Pump Inhibitor (EPI), Minimum Inhibitory Concentration (Table 1, EPI Conc. 0 μg/ml) | Levofloxacin MIC Against P. aeruginosa PAM1001 in Presence of Efflux Pump Inhibitor (EPI), Minimum Inhibitory Concentration (Table 1, EPI Conc. 0.625 μg/ml) | Levofloxacin MIC Against P. aeruginosa PAM1001 in Presence of Efflux Pump Inhibitor (EPI), Minimum Inhibitory Concentration (Table 1, EPI Conc. 5 μg/ml) | Levofloxacin MIC Against P. aeruginosa PAM1001 in Presence of Efflux Pump Inhibitor (EPI), Minimum Inhibitory Concentration (Table 1, EPI Conc. 10 μg/ml) | Levofloxacin MIC Against P. aeruginosa PAM1001 in Presence of Efflux Pump Inhibitor (EPI), Minimum Inhibitory Concentration (Table 1, EPI Conc. 40 μg/ml) | Levofloxacin MIC Against P. aeruginosa PAM1001 in Presence of Efflux Pump Inhibitor (EPI), Minimum Inhibitory Concentration [1] | Levofloxacin MIC Against P. aeruginosa PAM1001 in Presence of Efflux Pump Inhibitor (EPI), Minimum Inhibitory Concentration (Table 2, EPI Conc. 0 μg/ml) | Levofloxacin MIC Against P. aeruginosa PAM1001 in Presence of Efflux Pump Inhibitor (EPI), Minimum Inhibitory Concentration (Table 2, EPI Conc. 0.625 μg/ml) | Levofloxacin MIC Against P. aeruginosa PAM1001 in Presence of Efflux Pump Inhibitor (EPI), Minimum Inhibitory Concentration (Table 2, EPI Conc. 5 μg/ml) | Levofloxacin MIC Against P. aeruginosa PAM1001 in Presence of Efflux Pump Inhibitor (EPI), Minimum Inhibitory Concentration (Table 2, EPI Conc. 10 μg/ml) | Levofloxacin MIC Against P. aeruginosa PAM1001 in Presence of Efflux Pump Inhibitor (EPI), Minimum Inhibitory Concentration (Table 2, EPI Conc. 40 μg/ml) | Levofloxacin MIC Against P. aeruginosa PAM1001 in Presence of Efflux Pump Inhibitor (EPI), Minimum Inhibitory Concentration [2] | Levofloxacin MIC Against P. aeruginosa PAM1001 in Presence of Efflux Pump Inhibitor (EPI), Minimum Inhibitory Concentration (Table 3, EPI Conc. 0 μg/ml) | Levofloxacin MIC Against P. aeruginosa PAM1001 in Presence of Efflux Pump Inhibitor (EPI), Minimum Inhibitory Concentration (Table 3, EPI Conc. 0.625 μg/ml) | Levofloxacin MIC Against P. aeruginosa PAM1001 in Presence of Efflux Pump Inhibitor (EPI), Minimum Inhibitory Concentration (Table 3, EPI Conc. 5 μg/ml) | Levofloxacin MIC Against P. aeruginosa PAM1001 in Presence of Efflux Pump Inhibitor (EPI), Minimum Inhibitory Concentration (Table 3, EPI Conc. 10 μg/ml) | Levofloxacin MIC Against P. aeruginosa PAM1001 in Presence of Efflux Pump Inhibitor (EPI), Minimum Inhibitory Concentration (Table 3, EPI Conc. 40 μg/ml) | Levofloxacin MIC Against P. aeruginosa PAM1001 in Presence of Efflux Pump Inhibitor (EPI), Minimum Inhibitory Concentration [3] | Levofloxacin MIC Against P. aeruginosa PAM1001 in Presence of Efflux Pump Inhibitor (EPI), Minimum Inhibitory Concentration (Table 4, EPI Conc. 0 μg/ml) | Levofloxacin MIC Against P. aeruginosa PAM1001 in Presence of Efflux Pump Inhibitor (EPI), Minimum Inhibitory Concentration (Table 4, EPI Conc. 0.625 μg/ml) | also measured |
| --- | --- | --- | --- | --- | --- | --- | --- | --- | --- | --- | --- | --- | --- | --- | --- | --- | --- | --- | --- | --- | --- |
| D-Lysyl-β-N-(Ethylthioethyl)alanine 2-Naphthylamide Trifluoroacetate [Example 25] | 4 µg/mL | 4 µg/mL | 1 µg/mL | 0.06 µg/mL | 0.06 µg/mL | 0.06 µg/mL | 4 µg/mL | 4 µg/mL | 1 µg/mL | 0.06 µg/mL | 0.06 µg/mL | 0.06 µg/mL | 4 µg/mL | 4 µg/mL | 2 µg/mL | 1 µg/mL | 0.25 µg/mL | 0.50 µg/mL | 4 µg/mL | 4 µg/mL | Levofloxacin MIC Against P. aeruginosa PAM1001 in Presence of Efflux Pump Inhibitor (EPI), Minimum Inhibitory Concentration (Table 1, EPI Conc. […]): 4 µg/mL; Levofloxacin MIC Against P. aeruginosa PAM1001 in Presence of Efflux Pump Inhibitor (EPI), Minimum Inhibitory Concentration (Table 3, EPI Conc. […]): 4 µg/mL; Levofloxacin MIC Against P. aeruginosa PAM1001 in Presence of Efflux Pump Inhibitor (EPI), Minimum Inhibitory Concentration (Table 4, EPI Conc. 5 μg/ml): 0.125 µg/mL; Levofloxacin MIC Against P. aeruginosa PAM1001 in Presence of Efflux Pump Inhibitor (EPI), Minimum Inhibitory Concentration (Table 4, EPI Conc. 10 μg/ml): 0.06 µg/mL; Levofloxacin MIC Against P. aeruginosa PAM1001 in Presence of Efflux Pump Inhibitor (EPI), Minimum Inhibitory Concentration (Table 4, EPI Conc. 40 μg/ml): 0.125 µg/mL; Levofloxacin MIC Against P. aeruginosa PAM1001 in Presence of Efflux Pump Inhibitor (EPI), Minimum Inhibitory Concentration [4]: 0.125 µg/mL |
| β-(2-Thiaizolyl)alanyl-Nα -methylornithine 2-naphthylamide [Compound 30 (Table 1)] | 4 µg/mL | 4 µg/mL | 1 µg/mL | 0.25 µg/mL | 0.25 µg/mL | 0.25 µg/mL | 4 µg/mL | 4 µg/mL | 2 µg/mL | 1 µg/mL | 0.25 µg/mL | 0.50 µg/mL |  |  |  |  |  |  |  |  | Levofloxacin MIC Against P. aeruginosa PAM1001 in Presence of Efflux Pump Inhibitor (EPI), Minimum Inhibitory Concentration (Table 2, EPI Conc. […]): 4 µg/mL |
| 4-(O-Methylcarboxyamido)phenylalanyl-Nα -methylornithine 2-naphthylamide [Compound 32 (Table 1)] | 4 µg/mL | 4 µg/mL | 0.50 µg/mL | 0.125 µg/mL | 0.06 µg/mL | 0.06 µg/mL | 4 µg/mL | 4 µg/mL | 2 µg/mL | 0.50 µg/mL | 0.03 µg/mL | 0.25 µg/mL |  |  |  |  |  |  |  |  | Levofloxacin MIC Against P. aeruginosa PAM1001 in Presence of Efflux Pump Inhibitor (EPI), Minimum Inhibitory Concentration (Table 2, EPI Conc. […]): 4 µg/mL |
| D-Lysyl-β-N-(Cyclopropylmethyl)alanine Quinoline-3-amide Trifluoroacetate [Example 27] | 4 µg/mL | 4 µg/mL | 0.125 µg/mL | 0.125 µg/mL | 0.06 µg/mL | 0.125 µg/mL | 4 µg/mL | 4 µg/mL | 2 µg/mL | 2 µg/mL | 2 µg/mL | 2 µg/mL | 4 µg/mL | 4 µg/mL | 0.06 µg/mL | 0.03 µg/mL | 0.03 µg/mL | 0.03 µg/mL | 4 µg/mL | 4 µg/mL | Levofloxacin MIC Against P. aeruginosa PAM1001 in Presence of Efflux Pump Inhibitor (EPI), Minimum Inhibitory Concentration (Table 4, EPI Conc. 5 μg/ml): 2 µg/mL; Levofloxacin MIC Against P. aeruginosa PAM1001 in Presence of Efflux Pump Inhibitor (EPI), Minimum Inhibitory Concentration (Table 4, EPI Conc. 10 μg/ml): 2 µg/mL; Levofloxacin MIC Against P. aeruginosa PAM1001 in Presence of Efflux Pump Inhibitor (EPI), Minimum Inhibitory Concentration (Table 4, EPI Conc. 40 μg/ml): 1 µg/mL; Levofloxacin MIC Against P. aeruginosa PAM1001 in Presence of Efflux Pump Inhibitor (EPI), Minimum Inhibitory Concentration (Table 4, EPI Conc. […]): 4 µg/mL; Levofloxacin MIC Against P. aeruginosa PAM1001 in Presence of Efflux Pump Inhibitor (EPI), Minimum Inhibitory Concentration [4]: 1 µg/mL |
